Data as given in ChEMBL document CHEMBL2311258, “Manzamenones L-N, new dimeric fatty-acid derivatives from an Okinawan marine sponge Plakortis sp” (Bioorg Med Chem Lett, 2013).
In brackets after ≈: the same amount, converted by molar mass.

Columns and labels:
Bacillus subtilis = assay: Antibacterial activity against Bacillus subtilis; assay type: functional
Aspergillus niger = assay: Antifungal activity against Aspergillus niger; assay type: functional, organism-based
Micrococcus luteus = assay: Antibacterial activity against Micrococcus luteus; assay type: functional
Escherichia coli = assay: Antibacterial activity against Escherichia coli; assay type: functional
[1] = tested on: Trichophyton mentagrophytes; assay: Antifungal activity against Trichophyton mentagrophytes; assay type: functional, organism-based
Cryptococcus neoformans = assay: Antifungal activity against Cryptococcus neoformans; assay type: functional, organism-based
Candida albicans = assay: Antifungal activity against Candida albicans; assay type: functional, organism-based
Staphylococcus aureus = assay: Antibacterial activity against Staphylococcus aureus; assay type: functional

SMILES	MIC (Bacillus subtilis) [µg/mL]	IC50 (Aspergillus niger) [µg/mL]	MIC (Micrococcus luteus) [µg/mL]	MIC (Escherichia coli) [µg/mL]	IC50 [1] [µg/mL]	IC50 (Cryptococcus neoformans) [µg/mL]	IC50 (Candida albicans) [µg/mL]	MIC (Staphylococcus aureus) [µg/mL]
CCCCCCCCCCCCCCCCC1=C[C@H](C(=O)O)[C@H]2C(=O)C(C(=O)OC)=C(CCCCCCCCCCCCCCCC)[C@@]2(O)[C@H]1C(=O)OC	> 32	> 32	> 32	32 (≈ 42.2 µM)	> 32	8 (≈ 10.5 µM)	32 (≈ 42.2 µM)	16 (≈ 21.1 µM)
CCCCCCCCCCCCCCCCC1=C[C@H](C(=O)OC)[C@H]2C(=O)C(C(=O)OC)=C(CCCCCCCCCCCCCCCC)[C@@]2(O)[C@H]1C(=O)OC (racemic)	> 32	> 32	> 32	> 32	> 32	> 32	> 32	> 32
CCCCCCCCCCCCCCCCC1=C(C(=O)OC)C2=C(C(=O)[C@H](C(=O)OC)[C@H]2CCCCCCCCCCCCCCCC)C(C(=O)OC)C1 (some centres undefined) [MANZAMENONE N]	> 32	> 32	> 32	32 (≈ 42.3 µM)	> 32	4 (≈ 5.28 µM)	32 (≈ 42.3 µM)	> 32
